In patent publication US8883962B2, “Zinc-responsive peptides, and methods of use thereof” (Massachusetts Institute of Technology, priority 2012, dated 2014):
“And” between values parts separate entries of the source, which are not always exact repeats. Identical values can stand only once. Counter-ions that a name gives are not always drawn. The star is where a group is joined. ZP1 = ZinPyr-1 zinc sensor: fluorescein platform with two dipicolylamine metal-binding arms, attached via its 6-CO2H; Palmitoyl = CCCCCCCCCCCCCCCC(=O)*

Legend:
[1] = in 0.1 M H2SO4; cited from earlier work
[2] = 50 mM PIPES buffer (pH 7), 100 mM KCl; read-out: Kd-Zn (known); cited from earlier work
[3] = test system: HeLa cells; assay: Live cell imaging of zinc-induced fluorescence turn-on; assay type: cell-based
Procedure: To assess the ability of Palm-ZP1 to function within a cellular environment, we conducted live cell imaging experiments. HeLa cells were incubated with a 10 μM solution of Palm-ZP1 in Dulbecco's Modified Eagle Medium (DMEM) for 30 min (37° C., 5% CO2) prior to imaging. Initial cell images had minimal ZP1 emission, consistent with the low quantum yield for the apo form of the sensor. […] Subsequent addition of 100 μM EDTA, a cell-impermeable chelator, attenuated the fluorescent signal to initial levels within 5 min, further confirming that the zinc-induced fluorescence increase occurs extracellularly.
(§1) We carried out live cell imaging experiments to determine whether ZQ-MPP could target mitochondria and report on changes in zinc concentrations. HeLa cells were pretreated with a 25 μM solution of ZQ-MPP, which also contained MitoTracker Red as an internal mitochondria tracker (see later examples). […] The localization of ZQ-MPP was investigated with multichannel fluorescence microscopy. Visually, the distribution of MitoTracker Red (FIG. 19b) and ZQ-MPP (FIG. 19c) appear nearly identical. Overlaying the images (FIG. 19d) and calculating the Pearson's correlation coefficient yields an r=0.71±0.01, indicating strong colocalization.
HeLa cells were cultured at 37° C. under a 5% CO2 humidified atmosphere in Dulbecco's Modified Eagle Medium (High Glucose DMEM, Invitrogen) supplemented with 10% fetal bovine serum (FBS, HyClone), penicillin (100 μg/mL), and streptomycin (100 μg/mL). For live cell imaging, cells were seeded in 35-mm poly-D-Lys coated glass-bottom culture dishes (MatTek Corporation).
Palm-ZP1 (10 μM) was incubated for 30 min at 37° C. and 5% CO2 in DMEM. For multichannel imaging and co-localization studies, staining of the plasma membrane was accomplished by addition of Cell Mask Orange (Life Technologies, final concentration 2.5 μg/mL) for 15-20 min. Prior to imaging, cells were rinsed with warm dye- and serum-free DMEM (2×2 mL) and bathed in warm dye- and serum-free DMEM (2 mL). To assess the zinc responsiveness of Palm-ZP1, stock solutions of ZnCl2 (10 mM) were diluted in warm dye- and serum-free DMEM to a final ZnCl2 concentration of 50 μM. The zinc-enriched media was exchanged in the cell culture dish directly on the microscope stage. […]
(§2) The imaging experiments were performed using a Zeiss Axiovert 200M inverted epifluorescence microscope equipped with an EM-CCD digital camera (Hamamatsu) and a MS200 XY Piezo Z stage (Applied Scientific Instruments). The light source was an X-Cite 120 metal-halide lamp (EXFO) and the fluorescence images were obtained using an oil-immersion objective at 63× magnification. […]

[4] = test system: HeLa cells; assay: Localization study in live cells by multichannel fluorescence microscopy (Pearson's correlation coefficient); assay type: cell-based
Procedure: We next explored whether Palm-ZP1 selective accumulates in the plasma membrane. […] Quantitative image analysis corroborated these findings: Palm-ZP1 and Cell Mask Orange strongly co-localize with a Pearson's correlation coefficient of r=0.70±0.05.
as §1
Palm-ZP1 (10 μM) was incubated for 30 min at 37° C. and 5% CO2 in DMEM. For multichannel imaging and co-localization studies, staining of the plasma membrane was accomplished by addition of Cell Mask Orange (Life Technologies, final concentration 2.5 μg/mL) for 15-20 min. Prior to imaging, cells were rinsed with warm dye- and serum-free DMEM (2×2 mL) and bathed in warm dye- and serum-free DMEM (2 mL). […]
as §2
To calculate r, images were first deconvoluted using a calculated point-spread function (PSF) map based on emission wavelength, refractive index of the media (n=1.518), and the numerical aperture (1.4). Deconvoluted channels (i.e., sensor and organelle trackers) were merged and analyzed. For each image, a minimum of three regions-of-interest (ROI) were selected and the r-value calculated using an ImageJ plugin. […]

[5] = Photophysical characterization (absorbance, emission, quantum yield) without and with zinc; assay type: physicochemical; settings: 25 mM PIPES (pH 7), 50 mM KCl
Procedure: To investigate whether the zinc-sensing properties of the ZP1 moiety withstood the conditions of SPPS, we studied the zinc-binding and photophysical properties of Palm-ZP1 in vitro. Due to the hydrophobic palmitoyl moiety, we used a mixed solvent system consisting of 25 mM PIPES buffer (pH 7) with 50 mM KCl and 50% acetonitrile (v/v). In the absence of zinc, Palm-ZP1 has spectral features that are similar to those of other ZP1 derivatives. Apo Palm-ZP1 has a λabs=518 nm and λem=534 nm (φapo=0.16±0.05) (FIG. 24 and FIG. 29). Addition of ZnCl2 to a solution of Palm-ZP1 produced a characteristic blue-shift in absorption and emission spectra (λabs=505 nm; λem=527 nm) and an enhancement of fluorescence (φZn=0.79±0.05) (FIG. 16a).
ZQ-MPP was prepared manually using standard solid phase methodology. […] In the absence of zinc, ZQ-MPP has two main absorption bands with maxima at λabs=243 and 336 nm (FIG. 26), and is essentially non-emissive (φ≦0.002). Addition of ZnCl2 gives rise to two new features in the absorption spectrum (λabs=264 and 358 nm), and a large increase (>100-fold; φ=0.36±0.01) in fluorescence intensity (λem=484 nm, FIG. 16b, 26, and Table 30).
Spectroscopic measurements for Palm-ZP1 were carried out in a mixed solvent system consisting of 25 mM PIPES buffer (pH 7) with 50 mM KCl and 50% acetonitrile (v/v) (FIG. 24). Except where noted, all fluorescence data were obtained by exciting at 495 nm and observing from 500-650 nm, with 0.1 sec integration time and slit widths of 0.4 mm (1.6 nm). Emission spectra represent the average of three scans. The quantum yield of Palm-ZP1 was referenced to fluorescein in 0.1 M NaOH(aq), which has a known quantum yield of φ=0.95. Lakowicz, J. R. Principles of fluorescence spectroscopy; 2nd ed.; Kluwer Academic/Plenum: New York, 1999.
Characterization of ZQ-MPP (FIG. 26) was performed in 25 mM PIPES buffer (pH 7) with 50 mM KCl, and 50% (v/v) acetonitrile. Zinc affinities (Kd-Zn) were compared to TSQ under identical conditions (FIG. 27 and FIG. 30). Quantum yields for ZQ-MPP and TSQ were reference to quinine sulfate in 0.1 M H2SO4, which has a known quantum yield of (I)=0.58. Eastman, J. W. Photochem. Photobio. 1967, 6, 55.

[6] = Apparent zinc-binding affinity (Kd-Zn) by fluorescence titration in buffered zinc solution; settings: CaEDTA buffered solution, 25 mM PIPES (pH 7), 50 mM KCl, 50% acetonitrile
Procedure: Apparent zinc-binding affinities (Kd-Zn) were determined by a modified literature procedure. Walkup, G. K.; et al. J. Am. Chem. Soc. 2000, 122, 5644. For each zinc-binding titration, 1 mM EDTA and 2 mM CaCl2 were added to the MeCN/PIPES buffered solution. Palm-ZP1 or ZP1 was added, and the system was allowed to reach equilibrium (30 min). Aliquots of ZnCl2 were successively added, and the emission spectra recorded once the emission spectrum stabilized (˜30 min). The amount of free zinc for a given concentration of total zinc was calculated using the maxchelator program (http://maxchelator.stanford.edu/webmaxc/webmaxcS.htm) based on initial values of 1 mM EDTA, 2 mM CaCl2, an ionic strength of I=0.05 mol dm^−3, and a pH of 7.0. Due to the addition of acetonitrile to the buffered solution, we compared the apparent Kd-Zn for Palm-ZP1 to ZP1 under identical conditions (FIG. 25 and FIG. 29).
Apparent zinc-binding affinities (Kd-Zn) were determined using a modified literature procedure. Fahrni, C. J.; et al. J. Am. […] Aliquots of ZnCl2 were successively added, and the emission spectra recorded once the emission spectrum stabilized (˜30 min). The amount of free zinc for a given concentration of total zinc was calculated using the maxchelator program (http://maxchelator.stanford.edu/webmaxc/webmaxcS.htm) based on initial values of 2 mM EGTA at an ionic strength of I=0.05 mol dm^−3 and a pH of 7.0. […]

In the case of `C=C[C@H]1C[N@@]2CC[C@H]1C[C@H]2[C@H](O)c1ccnc2ccc(OC)cc12` [quinine sulfate], the “known quantum yield (reference standard)” value [1] is listed as 0.58.

In the case of `O=C1OC2(c3ccccc31)c1cc(Cl)c(O)c(CN(Cc3ccccn3)Cc3ccccn3)c1Oc1c2cc(Cl)c(O)c1CN(Cc1ccccn1)Cc1ccccn1` [ZP1], the Kd [2] is given as 0.7 nM.

With zinquin-FxrFxrFxr-CONH2 [ZQ-MPP] the “increase in ZQ-MPP intensity” value ([3]; 25 μM probe, addition of 50 μM zinc/pyrithione) was about 15 fold, the “signal after addition of zinc chelator” value ([3]; addition of 100 μM TPEN) was “returned to near baseline levels” and the “Pearson's correlation coefficient r with MitoTracker Red (mitochondria)” value [4] was 0.71±0.01. The “quantum yield φ, absence of zinc (apo)” value ([5]; 50% acetonitrile (v/v)) was at most 0.002, the “quantum yield φ, zinc-bound” value ([5]; 50% acetonitrile (v/v)) was 0.36±0.01 and the “λabs after addition of ZnCl2” value ([5]; 50% acetonitrile (v/v)) was 264 nm and 358 nm. For the same compound, the “λabs, absence of zinc (apo)” value ([5]; 50% acetonitrile (v/v)) was 243 nm and 336 nm, the “λem after addition of ZnCl2” value ([5]; 50% acetonitrile (v/v)) was 484 nm and the “increase in fluorescence intensity upon addition of ZnCl2” value ([5]; in vitro, 50% acetonitrile) was over 100 fold.

With “Palmitic acid-PPPDDK(ZPI)-CONH2 (Palmitoyl-PPPDDK(ZP1)-NH2; not fully specified) [Palm-ZP1]” the “increase in ZP1 fluorescence intensity at the peripheral membrane” value ([3]; 10 μM probe, addition of 50 μM ZnCl2, no ionophore) was about 1.7 fold, the “time for fluorescent signal to be attenuated to initial levels” value ([3]; addition of 100 μM EDTA) was at most 5 min and the “Pearson's correlation coefficient r with Cell Mask Orange (plasma membrane)” value [4] was 0.70±0.05. The localization in cells ([4]; multichannel fluorescence microscopy) was “preferentially localize to the plasma membrane”, the “Kd-Zn compared with ZP1” value [6] was “closely approximates the Kd-Zn of ZP1” and the “quantum yield φ, absence of zinc (apo)” value ([5]; 50% acetonitrile (v/v)) was 0.16±0.05. For the same compound, the “quantum yield φ, zinc-bound” value ([5]; 50% acetonitrile (v/v)) was 0.79±0.05, the “λabs after addition of ZnCl2” value ([5]; 50% acetonitrile (v/v)) was 505 nm and the “λabs, absence of zinc (apo)” value ([5]; 50% acetonitrile (v/v)) was 518 nm. The “λem after addition of ZnCl2” value ([5]; 50% acetonitrile (v/v)) was 527 nm and the “λem, absence of zinc (apo)” value ([5]; 50% acetonitrile (v/v)) was 534 nm.
